This passage reports fold change (FC) and inhibition results from ChEMBL document CHEMBL5653631, “A Potent and Selective ULK1 Inhibitor Suppresses Autophagy and Sensitizes Cancer Cells to Nutrient Stress” (iScience, 2018).

Test [1] deals with T1, Serine/threonine-protein kinase TBK1 (Homo sapiens) (UniProt Q9UHD2).
T1 sequence (whole entry): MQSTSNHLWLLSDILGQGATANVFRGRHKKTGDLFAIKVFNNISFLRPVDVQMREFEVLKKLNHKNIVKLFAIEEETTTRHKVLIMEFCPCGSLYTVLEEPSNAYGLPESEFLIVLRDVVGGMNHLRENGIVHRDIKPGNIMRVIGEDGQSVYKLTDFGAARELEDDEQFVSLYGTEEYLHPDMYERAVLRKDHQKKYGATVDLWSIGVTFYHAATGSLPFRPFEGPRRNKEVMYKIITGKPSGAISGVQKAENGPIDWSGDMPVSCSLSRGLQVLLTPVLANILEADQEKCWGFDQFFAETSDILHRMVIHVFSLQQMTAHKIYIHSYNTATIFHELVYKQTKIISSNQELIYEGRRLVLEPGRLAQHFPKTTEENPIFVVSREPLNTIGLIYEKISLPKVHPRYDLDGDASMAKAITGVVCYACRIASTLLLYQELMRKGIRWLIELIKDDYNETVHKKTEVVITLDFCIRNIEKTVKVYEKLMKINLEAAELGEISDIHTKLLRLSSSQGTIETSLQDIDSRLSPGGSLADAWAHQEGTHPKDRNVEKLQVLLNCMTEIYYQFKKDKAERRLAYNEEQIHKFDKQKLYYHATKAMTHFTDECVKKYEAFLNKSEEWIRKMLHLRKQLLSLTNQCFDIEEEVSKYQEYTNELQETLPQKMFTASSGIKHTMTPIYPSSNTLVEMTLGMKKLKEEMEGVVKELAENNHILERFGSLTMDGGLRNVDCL
Kind of test: Inhibition of human recombinant TBK1 at 15 nM related to control ULK1.

For test [2], the target named is Macrophage-stimulating protein receptor (Homo sapiens) (UniProt Q04912). Kind of test: Inhibition of human recombinant RON at 15 nM in presence of ATP by radiometric assay relative to control.
Macrophage-stimulating protein receptor (Homo sapiens), sequence (Q04912 25-304 limits assumed): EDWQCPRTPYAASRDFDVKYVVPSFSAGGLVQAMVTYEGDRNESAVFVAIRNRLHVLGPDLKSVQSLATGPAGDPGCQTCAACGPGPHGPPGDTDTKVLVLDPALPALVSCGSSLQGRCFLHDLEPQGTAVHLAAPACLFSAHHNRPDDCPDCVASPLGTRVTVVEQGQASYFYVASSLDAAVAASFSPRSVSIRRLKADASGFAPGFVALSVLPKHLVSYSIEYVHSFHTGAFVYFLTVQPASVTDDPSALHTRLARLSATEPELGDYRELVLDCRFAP
Macrophage-stimulating protein receptor (Homo sapiens), sequence (Q04912 310-1400 limits assumed): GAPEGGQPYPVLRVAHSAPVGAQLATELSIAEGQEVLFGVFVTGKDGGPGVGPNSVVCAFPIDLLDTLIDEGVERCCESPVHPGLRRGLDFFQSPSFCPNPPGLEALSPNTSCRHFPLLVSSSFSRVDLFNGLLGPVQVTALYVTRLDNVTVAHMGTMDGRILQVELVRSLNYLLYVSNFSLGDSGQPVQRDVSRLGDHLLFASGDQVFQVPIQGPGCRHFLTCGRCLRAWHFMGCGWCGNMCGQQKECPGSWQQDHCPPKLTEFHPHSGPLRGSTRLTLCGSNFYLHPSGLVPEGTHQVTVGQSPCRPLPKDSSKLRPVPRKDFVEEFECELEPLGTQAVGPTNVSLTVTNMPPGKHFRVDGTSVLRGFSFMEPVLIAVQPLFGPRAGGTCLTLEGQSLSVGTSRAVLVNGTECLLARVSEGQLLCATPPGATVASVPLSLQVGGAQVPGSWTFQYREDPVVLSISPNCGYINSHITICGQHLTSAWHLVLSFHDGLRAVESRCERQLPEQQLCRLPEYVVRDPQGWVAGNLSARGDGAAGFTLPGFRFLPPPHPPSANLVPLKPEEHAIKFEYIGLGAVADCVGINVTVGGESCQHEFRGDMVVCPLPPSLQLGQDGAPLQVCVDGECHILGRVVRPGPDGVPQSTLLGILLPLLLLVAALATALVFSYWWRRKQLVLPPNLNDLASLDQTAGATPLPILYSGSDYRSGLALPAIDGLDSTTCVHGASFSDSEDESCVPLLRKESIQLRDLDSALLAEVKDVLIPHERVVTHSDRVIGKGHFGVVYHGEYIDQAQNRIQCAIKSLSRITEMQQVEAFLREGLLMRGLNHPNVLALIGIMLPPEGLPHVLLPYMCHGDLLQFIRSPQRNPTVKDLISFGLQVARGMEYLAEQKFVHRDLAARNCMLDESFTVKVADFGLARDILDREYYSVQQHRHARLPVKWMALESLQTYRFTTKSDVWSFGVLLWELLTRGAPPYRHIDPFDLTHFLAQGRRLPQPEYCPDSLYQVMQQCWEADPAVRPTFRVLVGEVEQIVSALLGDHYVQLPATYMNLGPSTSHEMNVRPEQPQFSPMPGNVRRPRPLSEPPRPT
Test [3] concerns the target T2, MAPK/MAK/MRK overlapping kinase (Homo sapiens) (UniProt Q9UQ07).
T2 sequence (whole entry): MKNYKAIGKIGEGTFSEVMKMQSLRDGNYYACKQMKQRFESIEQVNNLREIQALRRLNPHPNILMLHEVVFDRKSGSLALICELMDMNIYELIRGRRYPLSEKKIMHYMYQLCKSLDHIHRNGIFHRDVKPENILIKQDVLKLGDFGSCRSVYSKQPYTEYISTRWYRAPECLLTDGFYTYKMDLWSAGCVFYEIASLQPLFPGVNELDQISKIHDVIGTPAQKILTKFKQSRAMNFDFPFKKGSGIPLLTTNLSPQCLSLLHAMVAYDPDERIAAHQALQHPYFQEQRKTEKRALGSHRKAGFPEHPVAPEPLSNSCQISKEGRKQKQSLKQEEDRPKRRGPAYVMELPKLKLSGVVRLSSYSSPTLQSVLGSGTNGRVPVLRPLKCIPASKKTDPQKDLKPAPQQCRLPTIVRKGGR
The test can be described thus: Inhibition of human recombinant MOK at 15 nM related to control ULK1.

Test [4] concerns the target Homeodomain-interacting protein kinase 3 (Homo sapiens) (UniProt Q9H422). Kind of test: Inhibition of human recombinant HIPK3 at 15 nM in presence of ATP by radiometric assay relative to control.
In test [5] the target is Cell division cycle 7-related protein kinase (Homo sapiens) (UniProt O00311). Kind of test: Inhibition of human recombinant CDC7 at 15 nM related to control ULK1.
For test [6], the target named is Casein kinase II subunit alpha' (Homo sapiens) (UniProt P19784). The test can be described thus: Inhibition of human recombinant CK2a2 at 15 nM in presence of ATP by radiometric assay relative to control.
Casein kinase II subunit alpha' (Homo sapiens), sequence (P19784 whole entry, looked up): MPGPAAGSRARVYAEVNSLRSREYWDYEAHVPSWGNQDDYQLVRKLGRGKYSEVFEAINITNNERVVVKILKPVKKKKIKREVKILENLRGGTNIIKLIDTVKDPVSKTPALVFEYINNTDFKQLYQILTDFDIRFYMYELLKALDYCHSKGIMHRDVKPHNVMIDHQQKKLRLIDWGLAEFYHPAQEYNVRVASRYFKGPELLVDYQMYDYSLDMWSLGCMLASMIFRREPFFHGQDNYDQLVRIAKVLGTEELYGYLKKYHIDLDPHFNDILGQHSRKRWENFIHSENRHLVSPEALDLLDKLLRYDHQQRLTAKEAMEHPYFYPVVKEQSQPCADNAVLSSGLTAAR
For test [7], the target named is Ribosomal protein S6 kinase alpha-1 (Homo sapiens) (UniProt Q15418). The test can be described thus: Inhibition of human recombinant RSK1 at 40 nM in presence of ATP by radiometric assay relative to control.
Ribosomal protein S6 kinase alpha-1 (Homo sapiens), sequence (Q15418 whole entry): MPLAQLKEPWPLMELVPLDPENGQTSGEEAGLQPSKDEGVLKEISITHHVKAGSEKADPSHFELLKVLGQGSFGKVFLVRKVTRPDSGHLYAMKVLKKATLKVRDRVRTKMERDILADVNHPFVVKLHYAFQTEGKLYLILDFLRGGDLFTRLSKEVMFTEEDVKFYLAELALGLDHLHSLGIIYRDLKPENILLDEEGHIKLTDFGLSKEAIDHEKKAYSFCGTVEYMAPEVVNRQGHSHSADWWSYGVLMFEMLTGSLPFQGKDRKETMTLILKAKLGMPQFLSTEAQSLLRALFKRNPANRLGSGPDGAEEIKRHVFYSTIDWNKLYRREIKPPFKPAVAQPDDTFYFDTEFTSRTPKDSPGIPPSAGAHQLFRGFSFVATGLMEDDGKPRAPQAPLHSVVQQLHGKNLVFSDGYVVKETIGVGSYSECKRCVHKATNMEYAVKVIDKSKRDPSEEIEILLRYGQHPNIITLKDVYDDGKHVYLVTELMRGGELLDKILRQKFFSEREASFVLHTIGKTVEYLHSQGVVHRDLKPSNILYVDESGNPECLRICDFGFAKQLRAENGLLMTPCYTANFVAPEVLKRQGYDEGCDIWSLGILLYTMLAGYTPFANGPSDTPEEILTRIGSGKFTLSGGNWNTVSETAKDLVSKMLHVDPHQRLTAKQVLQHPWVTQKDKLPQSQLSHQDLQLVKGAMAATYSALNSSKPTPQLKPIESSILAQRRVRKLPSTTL
Test [8] deals with T3, Mitogen-activated protein kinase kinase kinase 7 (Homo sapiens) (UniProt O43318).
T3 sequence (whole entry): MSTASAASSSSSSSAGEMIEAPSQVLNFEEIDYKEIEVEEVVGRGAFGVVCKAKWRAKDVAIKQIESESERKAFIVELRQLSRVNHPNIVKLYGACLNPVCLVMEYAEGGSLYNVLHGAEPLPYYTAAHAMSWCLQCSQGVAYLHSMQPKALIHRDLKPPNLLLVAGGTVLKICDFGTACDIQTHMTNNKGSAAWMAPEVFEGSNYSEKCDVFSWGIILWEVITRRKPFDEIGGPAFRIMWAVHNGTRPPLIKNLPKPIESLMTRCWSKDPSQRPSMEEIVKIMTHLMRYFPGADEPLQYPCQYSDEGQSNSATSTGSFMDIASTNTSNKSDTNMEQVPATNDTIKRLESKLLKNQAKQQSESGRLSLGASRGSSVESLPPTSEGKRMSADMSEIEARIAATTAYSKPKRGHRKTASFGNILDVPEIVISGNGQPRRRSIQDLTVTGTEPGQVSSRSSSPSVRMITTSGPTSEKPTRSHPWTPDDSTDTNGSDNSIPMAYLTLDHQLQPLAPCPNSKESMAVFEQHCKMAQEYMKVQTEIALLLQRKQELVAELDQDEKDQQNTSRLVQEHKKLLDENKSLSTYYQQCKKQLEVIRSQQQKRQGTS
The test can be described thus: Inhibition of human recombinant TAK1 at 40 nM in presence of ATP by radiometric assay relative to control.

Test [9] has as its target Dual specificity tyrosine-phosphorylation-regulated kinase 1B (Homo sapiens) (UniProt Q9Y463). The test can be described thus: Inhibition of human recombinant DYRK1B at 500 nM in presence of ATP by radiometric assay relative to control.
Test [10] has as its target T4, MAP kinase-activated protein kinase 5 (Homo sapiens) (UniProt Q8IW41).
T4 sequence (whole entry): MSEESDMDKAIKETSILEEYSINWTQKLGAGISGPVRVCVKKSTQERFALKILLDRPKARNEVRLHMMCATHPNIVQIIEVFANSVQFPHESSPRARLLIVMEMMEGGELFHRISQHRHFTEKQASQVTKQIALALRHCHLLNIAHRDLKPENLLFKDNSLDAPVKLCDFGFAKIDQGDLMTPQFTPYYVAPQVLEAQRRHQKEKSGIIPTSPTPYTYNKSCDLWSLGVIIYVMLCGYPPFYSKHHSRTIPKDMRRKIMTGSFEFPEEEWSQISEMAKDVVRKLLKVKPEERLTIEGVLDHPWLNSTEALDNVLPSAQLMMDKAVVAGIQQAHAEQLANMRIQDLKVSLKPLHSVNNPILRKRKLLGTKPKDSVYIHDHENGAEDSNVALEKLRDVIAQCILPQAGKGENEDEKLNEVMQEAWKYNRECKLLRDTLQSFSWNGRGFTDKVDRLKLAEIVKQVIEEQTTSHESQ
The test can be described thus: Inhibition of human recombinant MAPKAPK5 at 500 nM in presence of ATP by radiometric assay relative to control.

The target of test [11] is Serine/threonine-protein kinase PAK 4 (Homo sapiens) (UniProt O96013). Kind of test: Inhibition of human recombinant PAK4 at 500 nM in presence of ATP by radiometric assay relative to control.
Serine/threonine-protein kinase PAK 4 (Homo sapiens), sequence (O96013 whole entry, looked up): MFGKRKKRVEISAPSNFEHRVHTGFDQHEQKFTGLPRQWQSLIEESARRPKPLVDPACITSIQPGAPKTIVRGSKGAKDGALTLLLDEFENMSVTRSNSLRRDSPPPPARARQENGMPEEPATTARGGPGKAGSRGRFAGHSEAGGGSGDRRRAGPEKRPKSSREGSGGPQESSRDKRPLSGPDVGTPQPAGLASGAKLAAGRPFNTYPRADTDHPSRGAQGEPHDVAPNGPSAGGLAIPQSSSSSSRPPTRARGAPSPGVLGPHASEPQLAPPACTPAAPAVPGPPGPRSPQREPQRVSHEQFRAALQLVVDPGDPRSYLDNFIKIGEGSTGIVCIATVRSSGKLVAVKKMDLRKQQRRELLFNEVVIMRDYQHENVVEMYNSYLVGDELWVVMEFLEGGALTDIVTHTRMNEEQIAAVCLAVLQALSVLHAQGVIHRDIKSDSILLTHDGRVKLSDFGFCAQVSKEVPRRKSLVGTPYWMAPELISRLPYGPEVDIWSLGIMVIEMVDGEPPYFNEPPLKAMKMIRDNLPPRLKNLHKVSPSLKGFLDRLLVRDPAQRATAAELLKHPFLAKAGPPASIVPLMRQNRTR

SMILES strings stand for the structures.

Homeodomain-interacting protein kinase 3 (Homo sapiens), sequence (Q9H422 whole entry, looked up): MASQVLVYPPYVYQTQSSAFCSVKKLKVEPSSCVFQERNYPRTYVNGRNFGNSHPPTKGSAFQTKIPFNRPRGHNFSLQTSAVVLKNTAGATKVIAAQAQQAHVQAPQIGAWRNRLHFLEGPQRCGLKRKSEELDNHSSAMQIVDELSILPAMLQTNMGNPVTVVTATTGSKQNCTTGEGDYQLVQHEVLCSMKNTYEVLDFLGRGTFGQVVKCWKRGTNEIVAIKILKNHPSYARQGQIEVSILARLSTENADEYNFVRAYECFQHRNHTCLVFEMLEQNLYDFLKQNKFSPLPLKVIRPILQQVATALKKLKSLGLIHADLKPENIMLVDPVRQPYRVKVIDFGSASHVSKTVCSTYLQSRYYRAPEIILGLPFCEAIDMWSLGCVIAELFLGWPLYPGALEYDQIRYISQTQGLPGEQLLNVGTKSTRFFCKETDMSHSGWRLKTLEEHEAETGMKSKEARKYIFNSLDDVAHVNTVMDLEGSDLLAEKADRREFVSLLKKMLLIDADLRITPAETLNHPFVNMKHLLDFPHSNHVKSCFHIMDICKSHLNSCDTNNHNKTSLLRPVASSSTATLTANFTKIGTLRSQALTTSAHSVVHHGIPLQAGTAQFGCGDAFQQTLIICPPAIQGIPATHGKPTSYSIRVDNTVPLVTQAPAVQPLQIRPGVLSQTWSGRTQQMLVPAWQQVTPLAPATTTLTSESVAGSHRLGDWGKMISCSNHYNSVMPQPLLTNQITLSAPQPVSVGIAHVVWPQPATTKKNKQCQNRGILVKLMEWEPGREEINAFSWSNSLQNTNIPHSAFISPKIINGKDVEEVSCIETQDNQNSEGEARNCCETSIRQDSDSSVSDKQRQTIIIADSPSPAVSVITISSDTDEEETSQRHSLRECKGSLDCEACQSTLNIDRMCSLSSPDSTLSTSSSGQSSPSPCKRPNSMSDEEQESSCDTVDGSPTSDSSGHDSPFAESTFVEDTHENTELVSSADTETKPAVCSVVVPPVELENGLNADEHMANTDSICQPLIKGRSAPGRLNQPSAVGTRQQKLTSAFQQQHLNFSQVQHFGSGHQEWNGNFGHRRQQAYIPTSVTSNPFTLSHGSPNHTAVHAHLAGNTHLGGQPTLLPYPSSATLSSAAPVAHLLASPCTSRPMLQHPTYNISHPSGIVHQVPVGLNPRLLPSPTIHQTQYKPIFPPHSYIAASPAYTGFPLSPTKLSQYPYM
Dual specificity tyrosine-phosphorylation-regulated kinase 1B (Homo sapiens), sequence (Q9Y463 whole entry, looked up): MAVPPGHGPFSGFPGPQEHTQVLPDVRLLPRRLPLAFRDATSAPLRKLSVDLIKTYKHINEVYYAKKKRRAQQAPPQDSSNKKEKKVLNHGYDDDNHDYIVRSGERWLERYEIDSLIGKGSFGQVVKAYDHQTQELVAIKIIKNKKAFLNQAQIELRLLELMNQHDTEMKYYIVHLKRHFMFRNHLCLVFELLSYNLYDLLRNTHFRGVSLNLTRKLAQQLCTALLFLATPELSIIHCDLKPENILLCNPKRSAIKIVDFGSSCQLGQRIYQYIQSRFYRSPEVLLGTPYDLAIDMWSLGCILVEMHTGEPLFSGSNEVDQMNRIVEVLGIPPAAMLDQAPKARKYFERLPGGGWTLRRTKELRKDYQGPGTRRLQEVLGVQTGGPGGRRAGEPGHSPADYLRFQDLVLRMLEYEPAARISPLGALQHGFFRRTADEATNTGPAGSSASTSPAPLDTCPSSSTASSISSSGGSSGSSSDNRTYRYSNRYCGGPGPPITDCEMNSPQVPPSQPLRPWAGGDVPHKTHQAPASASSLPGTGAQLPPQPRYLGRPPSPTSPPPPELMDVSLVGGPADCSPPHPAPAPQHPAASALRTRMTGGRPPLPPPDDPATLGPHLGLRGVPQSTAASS

Usually inhibition stands for the relative decrease from the control value, in per cent. In the case of `CC(C)[C@H](NC(=O)c1cc(-c2cnn3cc(-c4ccc(OCCN5CCCCC5)cc4)cnc23)cs1)C(F)(F)F`, the fold change (FC) was 0.9 in test [1], 0.06 in [3] and 0.09 in test [5]. Further, the inhibition in [2] amounted to 2%; in test [4], 0%; in test [6] it was 5%.

Turning to `O=C(N[C@@H](C1CC1)C(F)(F)F)c1cc(-c2cnn3cc(-c4ccc(F)cc4)cnc23)cs1`, the inhibition is 8% in test [7] and 0% in test [8].

Consider `CNC(=O)c1ccccc1Oc1nc(Nc2cc(OC)c(OC)c(OC)c2)ncc1Br`, for which the inhibition in test [9] was found to be 0%; in [10], 0%; in [11] it was 41%.
